In EP2444086A1, “Combinations comprising DHODH inhibitors and COX inhibitors” (Almirall, S.A., priority 2010, dated 2012):

Tested on: HaCaT cells
Assay: Proliferation assay (ATP-lite bioluminescent assay of intracellular ATP content)
Assay type: cell-based
Conditions: Homo sapiens, 144 h; inhibition of proliferation of HaCaT cells, 6 days incubation, 10% FBS, absolute IC50, mean of 3 experiments
Protocol: Human adult low calcium high temperature (HaCaT) cells are spontaneously transformed human keratinocytes that have the characteristics of basal epidermal keratinocytes (Boukamp et at. J Cell Biol 106:761-771, 1988) This line can be used as in vitro model for highly proliferative epidermis (Ockenfels et at., Arch Dermatol Res 287:301-309, 1995)
HaCaT cells exponentially growing were plated in clear bottom, white walled, 96-well plates at a density of 5000 cells/well in 100 µL Dulbecco's modified Eagle's medium (DMEM) containing 1% fetal bovine serum (FBS), and incubated overnight at 37 °C, 5% CO2. Next day, media in each well was replaced with 50 µL growth medium containing 10% FBS. 50 µL of compounds at two-fold the desired concentration in growth medium containing 2% dimethyl sulfoxide (DMSO) were added to the wells. Six wells were replaced with fresh 100 µL of medium containing 1% FBS and 1% DMSO and were used as a control of no proliferation. Six other wells were replaced with fresh 100 µL of medium containing 10% FBS and 1% DMSO and were used as a control of top proliferation. Each compound concentration was tested in triplicate and ranged from 100 µM to 0.4 µM in half-log serial dilutions. Plates were incubated at 37°C 5% CO2 for 6 consecutive days. On the day of the assay, media was removed and replaced with 100 µL of phosphate buffered saline (PBS). A bioluminescent assay was performed to assess the intracellular adenosine-5'-triphosphate (ATP) content following the manufacturer instructions (ATP-lite, Perkin Elmer, Belgium). Results were expressed as a % of inhibition of proliferation in relation to the top and bottom proliferation wells. Absolute IC50 corresponded to the concentration of compound that caused 50% inhibition of proliferation. Table 1 depicts the mean and the standard deviation of 3 experiments for each indicated compound/combination.

For `COc1cccc(-c2cc(F)c(Nc3ncccc3C(=O)O)c(F)c2)c1` [Example 1, 2-(3,5-difluoro-3'-methoxybiphenyl-4-ylamino)nicotinic acid], the IC50 was 580 nM.

Work on `O=C(O)c1cc(C2CC2)ccc1Nc1cnc(-c2c(F)cccc2F)nc1` [Example 2, 5-cyclopropyl-2-(2-(2,6-difluorophenyl)pyrimidin-5-ylamino)benzoic acid] yielded an IC50 of 260 nM.

In the case of `CC(O)=C(C#N)C(=O)Nc1ccc(C(F)(F)F)cc1` [Example 3, 2-Butenamide, 2-cyano-3-hydroxy-N-[4-(trifluoromethyl)phenyl]-, reference compound], the IC50 is reported as 15200 nM.
